Results reported in PMC4678601 (Chemical science (Royal Society of Chemistry : 2010), 2014).

Assays:
[1] = test system: histone demethylases (KDMs); experiment: Selectivity panel of human 2OG oxygenases: histone demethylases; assay type: biochemical; conditions: at 100 μM
[2] = test system: carnitine biosynthesis in HEK 293T cells; experiment: LC-MS detection of carnitine levels in HEK 293T cells; assay type: cell-based, human; conditions: for Carnitine levels: control 100% (SEM ± 13%)
HEK 293T cells = experiment: Cytotoxicity in HEK 293T cells; assay type: cell-based, human; conditions: up to concentrations of 0.5 mM
BBOX [3] = conditions: read-out: KM of BBOX for 2OG; cited from earlier work
BBOX [4] = conditions: read-out: IC50 BBOX in vitro; cited from earlier work
BBOX [5] = target: T1, BBOX (Homo sapiens, UniProt O75936); experiment: Binding assay by quenching of the intrinsic fluorescence of BBOX
T1 sequence (O75936 1-387): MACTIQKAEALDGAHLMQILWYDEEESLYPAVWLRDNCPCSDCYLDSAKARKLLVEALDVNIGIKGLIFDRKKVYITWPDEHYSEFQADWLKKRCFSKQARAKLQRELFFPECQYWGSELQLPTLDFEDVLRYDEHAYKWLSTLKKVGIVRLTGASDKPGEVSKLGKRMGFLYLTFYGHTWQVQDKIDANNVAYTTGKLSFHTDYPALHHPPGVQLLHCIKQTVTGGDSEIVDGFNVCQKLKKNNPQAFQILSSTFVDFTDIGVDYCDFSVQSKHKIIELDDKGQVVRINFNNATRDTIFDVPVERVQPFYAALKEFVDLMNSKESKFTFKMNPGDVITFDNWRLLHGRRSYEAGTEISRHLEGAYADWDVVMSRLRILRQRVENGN

Q: Which “Activity against the tested KDMs” value [1] does the source give for O=C(N[C@@H](CSCc1ccccn1)C(=O)O)c1ncccc1O [AR692B] here?
A: The value was “inactive”.

Q: And the “Reduction in carnitine levels” value ([2]; HEK 293T cells, 100 μM)?
A: Its value is greater than 40%.

Q: What about the Carnitine levels ([2]; HEK 293T cells, 100 μM compound) of the same compound?
A: The Carnitine levels was 57 ± 9 percentage of free carnitine l.

Q: What about the Cytotoxicity (HEK 293T cells) of the same compound?
A: The Cytotoxicity was “not cytotoxic”.

Q: Which Km (BBOX [3]) does the source give for O=C(O)CCC(=O)C(=O)O [2OG, 2-oxoglutarate] here?
A: Its Km is 160 µM.

Q: Which “Reduction of carnitine levels” value ([2]; cells, 20 μM) does the source give for C[N+](C)(C)CCCC(=O)[O-] [GBB, γ-butyrobetaine] here?
A: The value was ~ 50%.

Q: Which Carnitine levels ([2]; HEK 293T cells, 20 μM compound) does the source give for C[N+](C)(C)NCCC(=O)[O-] [Mildronate] here?
A: The Carnitine levels was 70 ± 6 percentage of free carnitine l.

Q: And the “Reduction of carnitine levels” value ([2]; HEK 293T cells, 50 μM)?
A: Its value is 63%.

Q: And the Carnitine levels ([2]; HEK 293T cells, 50 μM compound)?
A: Its Carnitine levels is 37 ±10 percentage of free carnitine l.

Q: What about the “Activity on carnitine levels” value ([2]; HEK 293T cells, below 5 μM) of the same compound?
A: Its value is “not active”.

Q: What about the “Reduction of carnitine levels” value ([2]; cells, 20 μM) of the same compound?
A: The value was 30%.

Q: And the IC50 (BBOX [4])?
A: The IC50 was 60 µM.

Q: For O=C(O)CNC(=O)c1ncccc1O [compound 1, (3-hydroxypicolinoyl)glycine], which Kd (BBOX [5]) is on record?
A: Its Kd is 10.8 µM.
